US20080051418A1, “Arylalkanoic Acid Derivative” (priority 2004, published 2008)
Like-named read-outs stand apart in the source and are kept apart here.

What was measured:
[1] = test system: KKA^y mice; assay: Blood glucose and blood lipid (triglyceride) lowering action in mice; format: in vivo; conditions: Mus musculus, po, 96 h, 4 days, non-administration group = 100%; for inhibition in vivo at 0.005 %: 0.005% in powder diet; for inhibition in vivo at 0.01 %: 0.01% in powder diet (compound of Example 105)
Description: The test compound was mixed with a powder diet (CE-2, CLEA JAPAN, INC.) at a proportion of 0.005% (0.01% for the compound of Example 105) and freely given to KKA^y mice (9 to 12-week-old, 5 mice per group) which are obesity-insulin independent diabetes mellitus (type-2 diabetes) models, for 4 days. During this period, water was freely given. The blood was drawn from the orbital venous plexus. Glucose and triglyceride in the plasma separated from the blood were quantitated using L Type Wako Glu2 (Wako Pure Chemical Industries, Ltd.) and L Type Wako TG•H (Wako Pure Chemical Industries, Ltd.), respectively, according to an enzyme method.

[2] = biological target: T1, PPARγ-RXRα heterodimer (Homo sapiens, UniProt P37231); assay: PPARγ-RXRα heterodimer ligand activity (luciferase reporter); format: cell-based; conditions: PPARγ:RXRα:4ERPP/CHO-K1 cells, 18-24 hr, concentration showing 50% of the maximum induction rate
T1 construct: expressed in transfected cells; host or cells: CHO-K1
T1 sequence (P37231 1-505): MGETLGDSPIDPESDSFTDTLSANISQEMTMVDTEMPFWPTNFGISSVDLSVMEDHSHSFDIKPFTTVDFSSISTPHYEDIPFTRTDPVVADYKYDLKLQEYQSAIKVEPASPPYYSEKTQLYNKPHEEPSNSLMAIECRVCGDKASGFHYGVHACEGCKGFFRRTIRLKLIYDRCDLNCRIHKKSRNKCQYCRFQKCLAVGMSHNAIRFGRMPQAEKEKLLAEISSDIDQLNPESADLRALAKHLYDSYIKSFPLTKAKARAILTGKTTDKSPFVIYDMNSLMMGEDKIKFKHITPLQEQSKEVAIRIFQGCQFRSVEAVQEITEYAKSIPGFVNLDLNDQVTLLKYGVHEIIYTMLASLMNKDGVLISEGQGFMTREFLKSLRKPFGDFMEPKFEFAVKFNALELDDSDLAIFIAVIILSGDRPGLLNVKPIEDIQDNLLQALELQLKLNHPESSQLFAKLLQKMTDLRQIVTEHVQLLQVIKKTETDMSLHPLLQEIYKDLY
T1 sequence (P19793 1-462 partner): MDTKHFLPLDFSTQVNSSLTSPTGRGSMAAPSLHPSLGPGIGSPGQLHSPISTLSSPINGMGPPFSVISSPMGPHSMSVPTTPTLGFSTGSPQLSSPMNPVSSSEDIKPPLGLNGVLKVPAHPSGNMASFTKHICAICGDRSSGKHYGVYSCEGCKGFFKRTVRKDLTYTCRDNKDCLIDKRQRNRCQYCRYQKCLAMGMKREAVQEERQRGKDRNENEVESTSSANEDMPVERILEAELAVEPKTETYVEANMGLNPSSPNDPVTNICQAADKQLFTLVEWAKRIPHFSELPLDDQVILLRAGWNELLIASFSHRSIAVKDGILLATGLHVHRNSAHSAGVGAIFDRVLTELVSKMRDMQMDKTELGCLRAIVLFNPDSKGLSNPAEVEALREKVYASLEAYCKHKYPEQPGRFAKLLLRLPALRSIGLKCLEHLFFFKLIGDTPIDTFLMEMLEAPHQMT
Outline: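 CHO-K1 cells carrying PPARγ, RXRα and a 4ERPP luciferase reporter, exposed to compound 18–24 h at 37 °C in Ham F12 with 0.1% fatty acid-free BSA. Luciferase induction expressed relative to untreated cells (= 1). EC50 is concentration giving 50% of maximal induction.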

[3] = test system: KKA^y mice; assay: Plasma antiatherogenic index increasing action in mice; format: in vivo; conditions: Mus musculus, po, 96 h, 4 days, increase rate of (HDL cholesterol/total cholesterol)×100, non-administration group = 100%; for change in vivo at 0.005 %: 0.005% in powder diet
Experimental: The test compound was mixed with a powder diet (CE-2, CLEA JAPAN, INC.) at a proportion of 0.005% (0.01% for the compound of Example 105) and freely given to KKA^y mice (9 to 12-week-old, 5 mice per group) which are obesity-insulin independent diabetes mellitus (type-2 diabetes) models, for 4 days. During this period, water was freely given. The blood was drawn from fundus and the components were measured using the plasma separated from the blood. The total cholesterol was quantified using L Type Wako cholesterol (Wako Pure Chemical Industries, Ltd.). In addition, an HDL cholesterol precipitation reagent (Wako Pure Chemical Industries, Ltd.) was added to a part of the plasma to allow precipitation of a non-HDL lipoprotein, and the cholesterol (HDL cholesterol) of the supernatant was measured. The plasma antiatherogenic index [(HDL cholesterol/total cholesterol)×100] was calculated from these cholesterol values.

[4] = biological target: T2, PPARδ-RXRα heterodimer (Homo sapiens, UniProt Q03181); assay: PPARδ-RXRα heterodimer ligand activity (luciferase reporter); format: cell-based; conditions: transformant of Reference Example 9a of WO03/099793, 36-48 hr, concentration showing 50% of the maximum induction rate
T2 construct: expressed in transfected cells
T2 sequence (Q03181 1-441): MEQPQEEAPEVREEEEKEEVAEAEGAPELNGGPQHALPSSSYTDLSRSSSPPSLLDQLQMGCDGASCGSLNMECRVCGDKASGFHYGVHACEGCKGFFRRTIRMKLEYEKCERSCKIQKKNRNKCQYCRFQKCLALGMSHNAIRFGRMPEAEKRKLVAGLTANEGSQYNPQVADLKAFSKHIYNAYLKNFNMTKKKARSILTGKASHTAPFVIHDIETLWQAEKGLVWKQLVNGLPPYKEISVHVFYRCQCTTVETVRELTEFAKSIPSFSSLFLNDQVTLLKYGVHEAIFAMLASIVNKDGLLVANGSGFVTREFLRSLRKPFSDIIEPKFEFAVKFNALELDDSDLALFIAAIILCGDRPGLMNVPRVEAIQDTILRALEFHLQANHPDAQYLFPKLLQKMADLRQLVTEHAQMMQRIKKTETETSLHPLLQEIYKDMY
T2 sequence (P19793 1-462 partner): T1 sequence (P19793 1-462 partner)
Experimental: The transformant described in Reference Example 9a of WO03/099793 was suspended in a DMEM medium [manufactured by Life technologies, Inc., US] containing 0.1% fatty acid-free bovine serum albumin (BSA) (manufactured by Wako Pure Chemical Industries, Ltd.), and inoculated to each well of a 96 well white plate [manufactured by Corning Coster Corporation, US] by 80 μl to 1×10^4 cells/well. Then, the test compound (20 μl) was added, and cultured under the conditions of 37° C., 5% CO2 for 36-48 hr. The medium was removed from the 96 well white plate, 40 μl of PicaGene LT 7.5 (manufactured by Wako Pure Chemical Industries, Ltd.) diluted 2-fold with HBSS (HANKS' BALANCED SALT SOLUTION) [manufactured by BIO WHITTAKER, US] was added and, after stirring, the luciferase activity was determined using the 1420 ARVO Multilabel Counter [manufactured by PerkinElmer, US].
The induction rate was calculated from the luciferase activity of each test compound based on the luciferase activity of the test compound non-administration group as 1. The test compound concentration and the induction rate were analyzed by PRISM [manufactured by GraphPad Software, Inc., US] to calculate EC50 value (compound concentration showing 50% of the maximum value of induction rate) of the test compound.

[5] = lowering rate of plasma glucose, read-out: hypoglycemic action (%)
[6] = lowering rate of plasma triglyceride, read-out: hypolipidemic action (%)

| SMILES | EC50 [2] [nM] | EC50 [4] [nM] | melting point [°C] | inhibition in vivo at 0.005 % [1, 5] [%] | inhibition in vivo at 0.005 % [1, 6] [%] | change in vivo at 0.005 % [3] [%] | inhibition in vivo at 0.01 % [1, 5] [%] | inhibition in vivo at 0.01 % [1, 6] [%] | change in vivo at 0.01 % ([3]; 0.01% in powder diet (compound of Example 105)) [%] |
| --- | --- | --- | --- | --- | --- | --- | --- | --- | --- |
| CCn1cc(CC(=O)O)c(OCCCc2cc(OC(C)C)nn2Cc2ccc(Cl)cc2Cl)n1 [Example 22, (3-{3-[1-(2,4-dichlorobenzyl)-3-isopropoxy-1H-pyrazol-5-yl]propoxy}-1-ethyl-1H-pyrazol-4-yl)acetic acid] | 15 |  |  | 49 | 53 | 12 |  |  |  |
| COCOc1ccc(CCCOc2nn(C)cc2CC(=O)O)c(Oc2ncc(C(F)(F)F)cc2Cl)c1 [Example 111, (3-{3-[2-{[3-chloro-5-(trifluoromethyl)pyridin-2-yl]oxy}-4-(methoxymethoxy)phenyl]propoxy}-1-methyl-1H-pyrazol-4-yl)acetic acid] | 3.8 | 77 | 122 to 123 | 64 | 45 | 11 |  |  |  |
| COc1cccc(CC(=O)O)c1OCCCc1cc(OC(C)C)nn1Cc1ccc(C(F)(F)F)cc1 [Example 51, [2-(3-{3-isopropoxy-1-[4-(trifluoromethyl)benzyl]-1H-pyrazol-5-yl}propoxy)-3-methoxyphenyl]acetic acid] | 39 |  | 116 to 117 |  |  | 15 |  |  |  |
| COc1cccc(CC(=O)O)c1OCCCc1ccc(OC(C)C)cc1Oc1ccc(C(F)(F)F)cn1 [Example 107, {2-[3-(4-isopropoxy-2-{[5-(trifluoromethyl)pyridin-2-yl]oxy}phenyl)propoxy]-3-methoxyphenyl}acetic acid] |  |  |  |  |  | 13 |  |  |  |
| CCCOc1cc(CCCOc2c(CC(=O)O)cccc2OC)n(Cc2ccccc2)n1 [Example 56, {2-[3-(1-benzyl-3-propoxy-1H-pyrazol-5-yl)propoxy]-3-methoxyphenyl}acetic acid] |  |  |  |  |  | 12 |  |  |  |
| COCOc1ccc(CCCOc2c(CC(=O)O)cccc2OC)c(Oc2ccc(C(F)(F)F)cn2)c1 [Example 105, {3-methoxy-2-[3-(4-(methoxymethoxy)-2-{[5-(trifluoromethyl)pyridin-2-yl]oxy}phenyl)propoxy]phenyl}acetic acid] |  |  |  |  |  |  | 64 | 64 | 13 |

Second part, led by results:

| EC50 [2] [nM] | EC50 [4] [nM] | melting point [°C] | SMILES | inhibition in vivo at 0.005 % [1, 5] [%] | inhibition in vivo at 0.005 % [1, 6] [%] | change in vivo at 0.005 % [3] [%] | inhibition in vivo at 0.01 % [1, 5] [%] | inhibition in vivo at 0.01 % [1, 6] [%] | change in vivo at 0.01 % ([3]; 0.01% in powder diet (compound of Example 105)) [%] |
| --- | --- | --- | --- | --- | --- | --- | --- | --- | --- |
| 1.4 | 21 |  | CCCOc1cc(CCCOc2c(CC(=O)O)cccc2OC)n(Cc2ccc(Cl)cc2Cl)n1 [Example 57, (2-{3-[1-(2,4-dichlorobenzyl)-3-propoxy-1H-pyrazol-5-yl]propoxy}-3-methoxyphenyl)acetic acid] |  |  | 15 |  |  |  |
| 2.3 | 14 |  | COc1cccc(CC(=O)O)c1OCCCc1cc(OC(C)C)nn1Cc1ccc(Cl)cc1Cl [Example 16, (2-{3-[1-(2,4-dichlorobenzyl)-3-isopropoxy-1H-pyrazol-5-yl]propoxy}-3-methoxyphenyl)acetic acid] | 57 | 28 | 13 |  |  |  |
| 34 |  |  | COc1ccccc1Cn1nc(OC(C)C)cc1CCCOc1c(CC(=O)O)cccc1OC [Example 62, (2-{3-[3-isopropoxy-1-(2-methoxybenzyl)-1H-pyrazol-5-yl]propoxy}-3-methoxyphenyl)acetic acid] | 48 | 61 | 13 |  |  |  |
